In US7723320B2, “Use of estrogen compounds to increase libido in women” (Pantarhei Bioscience B.V., priority 2001, dated 2010):
Like-named read-outs stand apart in the source and are kept apart here.

Legend:
[1] = Single dose po/sc bioavailability and elimination half-life study; type: in vivo; details: rat, plasma, female Sprague Dawley rats; for bioavailability: po
Experimental: To evaluate the oral (po) and subcutaneous (sc) bioavailability of estetrol (E4) and to determine the elimination half-life, single dose studies were performed in female Sprague Dawley rats followed by frequent blood sampling over a 24 hours interval.
Female Sprague Dawley rats were equipped with a permanent silatic heart catheter, as described by Kuipers et al. (1985, Gastroenterology, 88, 403-411). Rats were allowed to recover from surgery for 5 days and were than administered 0.05, 0.5, or 5 mg/kg E4 in 0.5 ml arachis oil. For sc administration, E4 was injected in the neck area using a 1 ml syringe and 20 g needle. For po administration of E4, rats were lightly anaesthesized with halothene/N2O/O2 and E4 was directly applied intragastrically using a plastic stomach intubator. Blood samples were subsequently collected via the heart catheter in heparinized tubes at 0.5, 1, 2, 4, 8 and 24 hours. Erytlrocytes were removed by centrifugation at 5000×g for 10 minutes at 4° C. and blood plasma was stored at −20° C. After thawing the plasma samples, liquid-liquid extraction (hexane/diethylether) was employed to prepare the E4-containing plasma samples for HPLC analysis (Perkin Elmer 200) and tandem mass spectrometry using a PE Sciex 3000 tandem mass spectrometer and APCI interface. With each sample batch, a calibration curve with 6 calibrators was recorded. The calibration curve was calculated using linear regression (correlation coefficient>0.98), which permitted quantitation of plasma concentrations. For each rat plasma, sampled at different time intervals, data were collected.
Plasma E4 concentration data were analysed with “WinNonLin, edition 3.1” and involved pharmacokinetic parameters for Cmax, half-life and AUC0-24.

[2] = target: T1, human ERα (Homo sapiens, UniProt P03372); assay: Competitive steroid binding assay, ERα; details: for inhibition at 0.003 µM: E4 3 nM; for inhibition at 0.01 µM: E4 10 nM; for inhibition at 0.03 µM: E4 0.03 μM; for inhibition at 0.1 µM: E4 0.1 μM; for inhibition at 0.3 µM: E4 0.3 μM
T1 sequence (P03372 1-595): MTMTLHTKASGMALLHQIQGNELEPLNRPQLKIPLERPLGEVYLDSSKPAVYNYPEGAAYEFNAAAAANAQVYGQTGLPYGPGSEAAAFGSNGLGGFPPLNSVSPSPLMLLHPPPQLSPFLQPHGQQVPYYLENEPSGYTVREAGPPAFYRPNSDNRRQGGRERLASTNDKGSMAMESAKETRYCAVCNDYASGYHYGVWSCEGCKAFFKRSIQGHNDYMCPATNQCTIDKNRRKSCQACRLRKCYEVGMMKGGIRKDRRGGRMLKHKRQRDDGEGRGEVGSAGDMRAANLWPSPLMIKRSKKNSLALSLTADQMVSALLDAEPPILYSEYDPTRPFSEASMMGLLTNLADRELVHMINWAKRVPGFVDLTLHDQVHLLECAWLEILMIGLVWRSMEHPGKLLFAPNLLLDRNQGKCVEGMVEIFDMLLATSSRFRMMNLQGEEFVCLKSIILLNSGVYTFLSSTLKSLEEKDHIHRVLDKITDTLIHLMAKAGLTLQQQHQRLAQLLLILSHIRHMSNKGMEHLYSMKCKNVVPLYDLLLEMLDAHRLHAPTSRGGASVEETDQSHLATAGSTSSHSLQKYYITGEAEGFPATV

[3] = system: postmenopausal women; assay: Clinical study of libido in postmenopausal women; type: in vivo, human; details: 4 months
Experimental: In a baseline cycle, coitus frequency and sexual satisfaction (female orgasm) are recorded.
Each participant receives blinded medication in 2 differently labeled bottles, filled with tablets. One bottle comprises tablets that contain 2 mg estetrol, whilst the other bottle contains identical placebo tablets. The participants are allowed to choose from which bottle to take a tablet, but are instructed not to use more than 1 tablet per 24 hours and not more than 2 tablets a week. The total duration of the study is 4 months.

[4] = system: human breast cancer cells (MCF-7); details: MCF-7, long term tissue culture; cited from earlier work
[5] = system: immature rat uterus; details: subcutaneously administered, Holinka et al., cited from earlier work
[6] = system: estrogen receptors in the human endometrium; details: Tseng et al., 1978; cited from earlier work
[7] = target: T2, estrogen receptor in the human endometrium (Homo sapiens, UniProt P03372); details: Tseng et al., 1976; cited from earlier work
T2 construct: estrogen receptors in the human endometrium; host or cells: human endometrium (nuclei)
T2 sequence (P03372 1-595): T1 sequence (P03372 1-595)

[8] = target: T3, rat uterine cytosol estrogen receptor (Rattus norvegicus, UniProt P06211); details: cited from earlier work
T3 construct: rat uterine cytosol estrogen receptor; host or cells: rat uterus (cytosol / nuclear fraction)
T3 sequence (P06211 1-600): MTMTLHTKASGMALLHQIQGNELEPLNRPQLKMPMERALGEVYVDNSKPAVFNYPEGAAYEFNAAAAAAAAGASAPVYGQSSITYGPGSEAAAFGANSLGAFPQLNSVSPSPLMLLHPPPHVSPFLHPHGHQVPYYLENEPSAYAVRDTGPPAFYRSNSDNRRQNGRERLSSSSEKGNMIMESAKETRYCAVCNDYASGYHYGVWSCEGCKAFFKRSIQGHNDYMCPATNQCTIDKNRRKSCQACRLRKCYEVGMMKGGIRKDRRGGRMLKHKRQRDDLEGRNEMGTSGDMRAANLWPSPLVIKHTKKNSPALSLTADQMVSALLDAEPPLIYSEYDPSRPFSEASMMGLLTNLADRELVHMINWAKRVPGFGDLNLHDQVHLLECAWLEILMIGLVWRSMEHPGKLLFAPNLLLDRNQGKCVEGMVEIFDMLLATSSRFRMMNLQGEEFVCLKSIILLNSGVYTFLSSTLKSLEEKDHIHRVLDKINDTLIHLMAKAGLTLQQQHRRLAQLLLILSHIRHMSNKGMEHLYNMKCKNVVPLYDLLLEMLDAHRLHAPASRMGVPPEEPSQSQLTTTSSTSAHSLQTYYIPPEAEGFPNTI

[9] = target: T4, rat uterine nuclear estrogen receptor (Rattus norvegicus, UniProt P06211); details: cited from earlier work
T4 construct: rat uterine cytosol estrogen receptor; host or cells: rat uterus (cytosol / nuclear fraction)
T4 sequence (P06211 1-600): T3 sequence (P06211 1-600)

[10] = Test 1, read-out: Percent inhibition of specific binding in ERα steroid binding assay
[11] = Test 2, read-out: Percent inhibition of specific binding in ERα steroid binding assay
[12] = Test 3, read-out: Percent inhibition of specific binding in ERα steroid binding assay

C[C@]12CC[C@@H]3c4ccc(O)cc4CC[C@H]3[C@@H]1[C@@H](O)[C@@H](O)[C@@H]2O [E4, 1,3,5(10)-estratrien-3,15α,16α,17β-tetrol]
half-life ([1]; other: subcutaneous and oral, sc and po single dose): 2 to 3 h
bioavailability ([1]; single dose 5.0 mg/kg, read-out: oral bioavailability relative to sc administered E4): 30 to 60%
bioavailability ([1]; single dose 0.05, 0.5 mg/kg, read-out: oral bioavailability relative to sc administration): 80 to 100%
inhibition at 0.003 µM [2, 10]: 26%
inhibition at 0.003 µM [2, 11]: 17%
inhibition at 0.003 µM [2, 12]: 11%
inhibition at 0.01 µM [2, 10]: 43%
inhibition at 0.01 µM [2, 11]: 32%
inhibition at 0.01 µM [2, 12]: 28%
inhibition at 0.03 µM [2, 10]: 64%
inhibition at 0.03 µM [2, 11]: 66%
inhibition at 0.03 µM [2, 12]: 63%
inhibition at 0.1 µM [2, 10]: 83%
inhibition at 0.1 µM [2, 11]: 85%
inhibition at 0.1 µM [2, 12]: 86%
inhibition at 0.3 µM [2, 10]: 92%
inhibition at 0.3 µM [2, 11]: 94%
inhibition at 0.3 µM [2, 12]: 101%
inhibition at 1 µM ([2]; E4 1 μM, Test 1, read-out: Percent inhibition of specific binding in ERα steroid binding assay): 98%
Relative ERα/ERβ preference ([2]; from Ki values for ERα and ERβ): 400%
use of estetrol containing tablets versus placebo tablets ([3]; blinded free choice between two bottles): significantly more
libido and sexual enjoyment in comparison to baseline ([3]; oral 2 mg tablets on demand, postmenopausal women): improved libido and sexual enjoyment
undesirable side-effects ([3]; oral 2 mg tablets, max 2 tablets a week): no undesirable side-effects are reported
agonistic potency relative to 17β-estradiol in in vitro cell proliferation [4]: 2%
uterotrophic activity [5]; 1979: very weak uterotrophic activity
uterotrophic activity [5]; 1980: very weak uterotrophic activity
relative binding to estrogen receptors, of 17β-estradiol [6]: 1.5%
relative binding constant compared to 17β-estradiol (100%) [7]: 6.25%
relative binding affinity, of 17β-estradiol (100%) [8]: 0.5%
relative binding affinity, of 17β-estradiol (100%) [9]: 0.3%
